Where two headings read alike, the source gives them in different places. Blank lines part the entries; values can stand above or below the molecule they belong to.
Experiments:
[1] = Urinary excretion / metabolite profile in 24 h mouse urine; assay type: in vivo, Female BALB/c mice; conditions: mice, NU7026 5 mg kg^−1 i.v., LC/MS ion current
Procedure: (§1) NU7026 was formulated in 10% DMSO and 5% Tween 20 in saline for i.p. and perorally (p.o.) administration at 20 and 50 mg kg^−1, respectively. For i.v. dosing at 5 mg kg^−1, NU7026 was formulated in 10% ethanol, 25% PEG 200 and 5% Tween 20 in saline. Control animals received the vehicle alone. Groups of three mice were injected per time point. Blood was collected by cardiac puncture following transient anaesthesia with halothane at 0.083, 0.25, 0.5, 1, 2, 4, 6, and 24 h post administration. Following centrifugation at 1500 g for 2 min to obtain plasma, samples were stored at −20°C until analysis. For urinary excretion studies, NU7026 was administered at 5 mg kg^−1 i.v. Urine was collected over 24 h in metabolic cages, and stored at −20°C until required.
For metabolism studies, LC/MS and LC/MS/MS were carried out on an LCQ ion trap instrument (ThermoFinnigan, UK). Separation was achieved using the same column as above. A linear gradient of 90% formic acid (0.1%) : 10% MeOH to 10% formic acid (0.1%) : 90% MeOH was run at 1 ml min^−1 from 0.5 to 6.5 min followed by 3.5 min isocratic. The capillary temperature was set to 200°C and the scan range from m/z 50 to m/z 850. For confirmation of metabolite structures, metabolites were spiked in control matrix and MS/MS fragmentation patterns and retention times were compared to those of biological samples.

[2] = Plasma pharmacokinetics in mice (LC/MS/MS); assay type: in vivo, Female BALB/c mice
Procedure: as §1
Samples were analysed by liquid chromatography tandem mass spectrometry (LC/MS/MS). Chromatography was performed using a 50 × 4.6 mm ID 5 μm zwitterionic ABZ+ column (Supelco, Poole, Dorset, UK) and a gradient of 20% methanol (MeOH) in formic acid (0.1%) to 100% MeOH over 3 min, followed by an isocratic period at a flow rate of 0.6 ml min^−1. The total run time was 7 min. Detection by multiple reaction monitoring was performed on a TSQ700 triple quadrupole mass spectrometer equipped with an electrospray source and operated in positive ion mode (Thermoquest Ltd, Hemel Hempstead, Herts, UK). The heated capillary was maintained at 280°C and at a voltage of 4.5 kV. The following transitions were monitored: m/z (mass to charge ratio) 282.4 → m/z 171 for NU7026; m/z 262.3 → m/z 121 for NU7031; m/z 300 → m/z 256 for NU7119; m/z 300 → m/z 238 for NU7200. Calibration standards (20, 200, 500, 1000, 2000, 5000, 10 000, 20 000 and 50 000 nM) were prepared in blank mouse plasma. Following the addition of internal standard (30 μl of 2 μM solution of NU7031), plasma proteins were precipitated with 300 μl MeOH. Samples were then centrifuged and 20 μl of supernatant was injected onto the column. Peak area was plotted against concentration and unknown concentrations derived from the linear plot (analysed with Prism 2.01, Graphpad Software, San Diego, CA, USA).
Pharmacokinetic parameters were evaluated by noncompartmental analysis (model 200 for p.o. and i.p. administration and 201 for i.v. administration) using WinNonlin® Professional Version 3.2 (Pharsight Corporation, Mountain View, CA, USA). For simulation studies, parameters were derived from compartmental analysis.

[3] = target: phosphoinositide 3-kinase; parameters: method as in Veuger et al, 2003, 2004; Griffin et al 2005; conditions: ref Veuger et al, 2003, 2004; Griffin et al 2005; cited from earlier work
[4] = Solubility (for constant infusion with osmotic minipumps); assay type: physicochemical; conditions: for dosing by constant infusion with osmotic minipumps
[5] = test system: ataxia telangiectasia and rad 3-related kinases (ATR); parameters: method as in Veuger et al, 2003, 2004; Griffin et al 2005; conditions: ref Veuger et al, 2003, 2004; Griffin et al 2005; cited from earlier work
[6] = target: ataxia telangiectasia mutated kinase (ATM); parameters: method as in Veuger et al, 2003, 2004; Griffin et al 2005; conditions: ref Veuger et al, 2003, 2004; Griffin et al 2005; cited from earlier work
[7] = test system: CH1 human ovarian carcinoma cells; experiment: Clonogenic survival assay / radiosensitisation; assay type: cell-based; conditions: for cell count, % of the radiation control group: P<0.01
Procedure: These experiments were not designed as classical radiosensitisation experiments, that is, radiation dose finding study, but rather as experiments to investigate the minimum drug exposure required to observe radiosensitisation. CH1 human ovarian carcinoma cells were chosen as as a model because of their relative radiosensitivity (Kelland, personnal communication). They were grown as monolayers in Dubelcco's modified Eagle's medium (Invitrogen, Paisley, Scotland) augmented with 10% heat-inactivated fetal calf serum, 2 mM L-glutamine, minimal essential medium nonessential amino acid (Invitrogen) and 0.5 μg ml^−1 hydrocortisone in a 6.5% CO2/93.5% air atmosphere.
Cells were seeded at 1000 per 10 ml into […] flasks and left to attach overnight. Each group consisted of triplicate flasks. Following the addition of NU7026 (10 μM) or dimethyl sulphoxide (DMSO) solvent control for 24 h (final concentration of DMSO was 0.5%), cells were irradiated with a cobalt source (^60Co) for 3 min and 9 s at a distance of 40 cm to give a total dose of 2 Gy, or 2 min and 49 s at a distance of 30 cm to give a final dose of 3 Gy, or 6 min and 18 s at a distance of 40 cm to give a total dose of 4 Gy. Control cells were not treated with either drug or ionising radiation. Group 2 cells were treated with NU7026 only and Group 3 cells were irradiated only. Groups 4–7 were treated with NU7026 and irradiated with 2, 3 or 4 Gy. The drug was washed off by aspiration of the medium and rinsing with 10 mM phosphate-buffered saline (PBS) 2 h (Group 4), 4 h (Group 5), 6 h (Group 6) and 24 h (Group 7) after exposure. Following the addition of drug-free medium, cells were left to grow until colonies were visible. Colonies were then counted after 9 days and expressed as a percentage of controls. The doubling time of the cells was approximately 16 h.

[8] = target: DNA-PK (Homo sapiens, UniProt P78527); experiment: DNA-PK inhibition; assay type: biochemical; conditions: stated in results, no method or reference given; read-out: IC50 inhibiting DNA-PK
[9] = Table 2: parent and metabolites in plasma after NU7026 at 5 mg kg^−1 i.v. to mice
[10] = Table 3: each compound at 20 mg kg^−1 i.p. to mice, plasma
[11] = female, BALB/c, mouse, plasma, ip, 20 mg/kg, Table 3: each compound at 20 mg kg^−1 i.p. to mice, plasma

level in 24 h urine samples [1]: significant amounts
Structure (SMILES): O=c1cc(N2CCOC(O)C2)oc2c1ccc1ccccc12 (centres unmarked) [M1]

solubility [4]: insufficient solubility | AUC last [2, 9]: 3616 nmol·L/h | Cl obs. [2, 10]: 0.44 L/h | Vd [2, 10]: 0.55 L | t1/2 [2, 10]: 52.2 min | half-life ([2]; female, BALB/c, mouse, ip, mice, 20 mg kg^−1 i.p., plasma): 52.2 min | Tmax ([2]; female, BALB/c, mouse, ip, mice, 20 mg kg^−1 i.p., plasma, read-out: Tmax): 4.98 min | half-life ([2]; female, BALB/c, mouse, iv, mice, 5 mg kg^−1 i.v., plasma): 73.2 min | Tmax ([2]; female, BALB/c, mouse, iv, mice, 5 mg kg^−1 i.v., plasma, read-out: Tmax): 0 min | bioavailability ([2]; female, BALB/c, mouse, plasma, intraperitoneal, mice, i.p. 20 mg kg^−1, assuming linear i.v. pharmacokinetics): 20% | Cmax [2, 11]: 5.12 µM | Cmax ([2]; female, BALB/c, mouse, plasma, ip, 20 mg/kg, mice, 20 mg kg^−1 i.p., noncompartmental): 7.36 µM | Cmax ([2]; female, BALB/c, mouse, plasma, iv, 5 mg/kg, mice, 5 mg kg^−1 i.v., noncompartmental): 5.12 µM | clearance ([2]; female, BALB/c, mouse, plasma, iv, 5 mg/kg, mice, 5 mg kg^−1 i.v., plasma, read-out: Cl obs. (converted)): 1.5 mL/min | clearance ([2]; female, BALB/c, mouse, plasma, iv, 5 mg/kg, mice, 5 mg kg^−1 intravenous (abstract), read-out: plasma clearance (converted)): 1.8 mL/min | Vd ([2]; female, BALB/c, mouse, plasma, iv, mice, 5 mg kg^−1 i.v., based on the elimination phase, read-out: Vd): 0.16 L | Cmax ([2]; female, BALB/c, mouse, plasma, po, 50 mg/kg, mice, 50 mg kg^−1 p.o., noncompartmental): 2.23 µM | Cmax ([2]; female, BALB/c, mouse, plasma, po, 50 mg/kg, mice, p.o. 50 mg kg^−1 (discussion)): < 2.5 µM | half-life ([2]; female, BALB/c, mouse, po, mice, 50 mg kg^−1 p.o., plasma): 88.8 min | Tmax ([2]; female, BALB/c, mouse, mice, oral 50 mg kg^−1, plasma, read-out: time of maximum concentration after administration): 60 min | AUC last ([2]; mice, 5 mg kg^−1 i.v., plasma): 3616 nM l h^−1 | Vd ([2]; mice, 20 mg kg^−1 i.p., based on the elimination phase): 0.55 L | AUC last ([2]; mice, 20 mg kg^−1 i.p., plasma): 2940 nM l h^−1 | Cl obs. ([2]; mice, 20 mg kg^−1 i.p., plasma): 0.44 L/h | Vd ([2]; mice, 50 mg kg^−1 p.o., based on the elimination phase): 1.34 L | AUC last ([2]; mice, 50 mg kg^−1 p.o., plasma): 5191 nM l h^−1 | Cl obs. ([2]; mice, 50 mg kg^−1 p.o., plasma): 0.63 L/h | plasma level at 4 h post administration ([2]; mice, i.v. 5 mg kg^−1): undetectable | time compound levels were above 10 μM ([2]; mice, i.v. administration, plasma): less than 1 h | maximum concentration ([2]; mice, oral 50 mg kg^−1, plasma): 2.2 µM | oral bioavailability ([2]; mice, p.o. 50 mg kg^−1 (abstract prints 20 mg kg^−1), based on linear i.v. pharmacokinetics): 15%
Structure (SMILES): O=c1cc(N2CCOCC2)oc2c1ccc1ccccc12 [NU7026, 2-(morpholin-4-yl)-benzo[H]chromen-4-one]
IC50 [3]: 13 µM | IC50 [5]: > 100 µM | IC50 [6]: > 100 µM | cell survival, % of the solvent-treated group ([7]; 10 μM NU7026 combined with 2 Gy radiation): 15% | cell survival, % of the solvent-treated group ([7]; 10 μM NU7026 combined with 3 Gy radiation): 9% | cell survival, % of the solvent-treated group ([7]; 10 μM NU7026 combined with 4 Gy radiation): 1% | radiosensitisation vs radiation alone ([7]; 2 h treatment with 10 μM NU7026 + 3 Gy, t test P>0.1): no significant difference | cell count, % of the radiation control group ([7]; 4 h exposure to 10 μM NU7026 + 3 Gy): 61% | cell count, % of the radiation control group ([7]; 6 h exposure to 10 μM NU7026 + 3 Gy): 47% | cell count, % of the radiation control group ([7]; 24 h exposure to 10 μM NU7026 + 3 Gy): 13% | activity at 10 µM ([7]; Homo sapiens, Ovarian carcinoma cell, NU7026 alone, 10 μM for 24 h, no radiation, read-out: surviving fraction, % of control cells): 91 ± 13%

More lines, now with the values behind:

Structure (SMILES): O=c1cc(N(CCO)CCO)oc2c1ccc1ccccc12 [NU7199, 2-[bis-(2-hydroxyethyl)-amino]-benzo[H]chromen-4-one]
level in 24 h urine samples [1]: significant amounts | AUC last [2, 9]: 414 nmol·L/h

Structure (SMILES): C[C@@H]1CN(c2cc(=O)n3ccc4ccccc4c3n2)C[C@H](C)O1 [NU7107, 2-((2S,6R)-2,6-dimethylmorpholin-4-yl)-pyrimido[2,1-a]isoquinolin-4-one]
IC50 [8]: > 10 µM | AUC last [2, 10]: 12165 nmol·L/h | Cl obs. [2, 10]: 0.11 L/h | Vd [2, 10]: 0.12 L | half-life ([2]; female, BALB/c, mouse, ip, Table 3: each compound at 20 mg kg^−1 i.p. to mice, plasma): 47.4 min | Tmax ([2]; female, BALB/c, mouse, ip, Table 3: each compound at 20 mg kg^−1 i.p. to mice, plasma, read-out: Tmax): 15 min | Cmax [2, 11]: 10.4 µM | decrease in plasma clearance compared with NU7026 ([2]; mice, 20 mg kg^−1 i.p.): four-fold | plasma level 6 h post administration ([2]; mice, 20 mg kg^−1 i.p.): still detectable

Structure (SMILES): O=c1cc(NCCOCCO)oc2c1ccc1ccccc12 [NU7200, 2-[2-(2-hydroxyethoxy)-ethylamino]-benzo[H]chromen-4-one]
level in 24 h urine samples [1]: significant amounts | AUC last [2, 9]: 143 nmol·L/h

Reference: PMC2361671, “Preclinical pharmacokinetics and metabolism of a novel prototype DNA-PK inhibitor NU7026” (British Journal of Cancer, 2005)
